Measurements reported in patent publication US8841413B2, “Antidiabetic compounds” (Cadila Healthcare Limited, priority 2006, dated 2014).

Key:
[1] = Stability in simulated intestinal fluid; type: in vitro ADME; conditions: 37° C.; for % degradation in 24 h when incubated with simulated intestinal fluid / half-life (t1/2) in simulated intestinal fluid: 2 μM, pH 7.5; for half-life at 2 μM: simulated intestinal fluid, pH 7.5, read-out: half-life (t1/2) in simulated intestinal fluid
Outline: (§1)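 Reactions were stopped with 10% (v/v) TFA/H2O, then analysed by HPLC on a column equilibrated in TFA/H2O at 1 mL/min. Absorbance was read at 206 nm by UV, and peaks were collected manually for ESI-MS identification.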

[2] = Stability in human plasma; type: in vitro ADME; conditions: for % degradation in 24 h when incubated with human plasma / half-life (t1/2) in human plasma: 2 μM, 37° C.; for half-life at 2 μM: human, pooled human plasma, pH 7.8, 37° C., read-out: half-life (t1/2) in human plasma
Outline: as §1

[3] = biological target: DPP IV (Homo sapiens, UniProt P27487); assay: Stability against DPP IV enzyme; type: in vitro ADME; conditions: for % degradation in 24 h when incubated with DPP-IV enzyme: 2 μM, 37° C.; for half-life at 2 μM: DPP IV enzyme, pH 7.8, 37° C., read-out: half-life (t1/2) with DPP-IV enzyme
Chain of DPP IV (P27487 whole entry, species assumed): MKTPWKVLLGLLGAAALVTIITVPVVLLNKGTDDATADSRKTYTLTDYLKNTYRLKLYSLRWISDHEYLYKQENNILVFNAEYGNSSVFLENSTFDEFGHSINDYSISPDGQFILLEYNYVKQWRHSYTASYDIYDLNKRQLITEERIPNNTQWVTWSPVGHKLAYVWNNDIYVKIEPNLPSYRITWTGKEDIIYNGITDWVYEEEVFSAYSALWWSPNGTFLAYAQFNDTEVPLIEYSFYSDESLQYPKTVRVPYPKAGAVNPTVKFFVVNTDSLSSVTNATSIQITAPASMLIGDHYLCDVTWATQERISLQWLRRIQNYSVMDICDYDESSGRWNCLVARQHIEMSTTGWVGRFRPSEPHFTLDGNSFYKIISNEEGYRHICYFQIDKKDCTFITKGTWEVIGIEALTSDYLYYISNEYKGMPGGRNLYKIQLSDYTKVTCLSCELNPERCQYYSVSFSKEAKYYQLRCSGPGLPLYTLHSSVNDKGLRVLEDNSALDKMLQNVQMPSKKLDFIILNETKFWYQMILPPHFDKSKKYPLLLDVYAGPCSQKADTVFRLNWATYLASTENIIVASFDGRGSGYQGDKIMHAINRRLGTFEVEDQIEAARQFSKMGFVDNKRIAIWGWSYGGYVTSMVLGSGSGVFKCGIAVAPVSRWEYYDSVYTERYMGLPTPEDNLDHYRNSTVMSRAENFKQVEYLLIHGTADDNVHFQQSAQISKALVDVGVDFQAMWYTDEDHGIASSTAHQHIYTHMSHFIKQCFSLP
Outline: as §1

[4] = Stability against liver microsomes; type: in vitro ADME, human; conditions: for % degradation in 24 h when incubated with liver microsomes: 2 μM, 37° C.; for half-life at 2 μM: human, human liver microsomes, pH 7.8, 37° C., read-out: half-life (t1/2) with liver microsomes
Outline: as §1

[5] = tested on: RIN5F (Rat Insulinoma) cells; assay: In vitro glucose-dependent insulin secretion (RIN5F cell assay); type: cell-based; conditions: 16.7 mM glucose load, mean ± S.D., n = 3
Method: After trypsinization, RIN5F cells were seeded at a concentration of 0.2×10^6·cells per well, in 12 well plates.
The supernatant was collected and the insulin amount was measured by ultra sensitive Rat insulin ELISA kit (Crystal Chem, Ill.). The protein was estimated in the supernatant using Bicinchoninic Acid kit, according to the manufacturer's protocol (Sigma Aldrich, Mo.). The total insulin content obtained in Pico-gram (pg) was divided with the total protein (μg) in order to normalize for differences in cell density between wells.

[6] = Stability in simulated gastric fluid; type: in vitro ADME; conditions: 37° C., pH 1.5, pepsin; for % degradation in 24 h when incubated with simulated gastric fluid / half-life (t1/2) in simulated gastric fluid: 2 μM; for half-life at 2 μM: simulated gastric fluid with pepsin, read-out: half-life (t1/2) in simulated gastric fluid
Outline: as §1

[7] = biological target: T1, human glucagon receptor (Homo sapiens, UniProt P47871); assay: In vitro human glucagon antagonist activity (inhibition of cAMP production), CHO/human glucagon R cells; type: cell-based
T1 construct: The full-length cDNA was cloned in pcDNA3.1(Invitrogen); expressed in transfected cells
T1 sequence (P47871 26-477): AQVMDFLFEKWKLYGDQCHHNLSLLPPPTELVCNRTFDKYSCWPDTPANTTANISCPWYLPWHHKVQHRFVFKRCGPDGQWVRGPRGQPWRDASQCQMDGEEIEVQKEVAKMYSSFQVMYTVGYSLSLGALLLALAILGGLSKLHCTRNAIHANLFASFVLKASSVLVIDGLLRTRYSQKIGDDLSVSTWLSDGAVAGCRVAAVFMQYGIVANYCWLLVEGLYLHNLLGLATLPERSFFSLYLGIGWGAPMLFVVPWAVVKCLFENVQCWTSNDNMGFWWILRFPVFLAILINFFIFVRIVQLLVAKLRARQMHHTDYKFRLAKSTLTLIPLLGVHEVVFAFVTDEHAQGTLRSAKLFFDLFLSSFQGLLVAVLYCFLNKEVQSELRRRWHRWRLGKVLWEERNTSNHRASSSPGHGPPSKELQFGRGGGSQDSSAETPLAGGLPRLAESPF

[8] = 1 nM test compound (fourth concentration column, between 100 nM and 10 μM) with saturated concentration of glucagon peptide
[9] = 1 nM test compound with saturated concentration of glucagon peptide
[10] = 10 nM test compound with saturated concentration of glucagon peptide
[11] = 100 nM test compound with saturated concentration of glucagon peptide
[12] = 10 μM test compound with saturated concentration of glucagon peptide

SMILES | % degradation in 24 h when incubated with simulated intestinal fluid [1] | half-life (t1/2) in simulated intestinal fluid [1] | % degradation in 24 h when incubated with human plasma [2] | half-life at 2 μM [2] | % degradation in 24 h when incubated with DPP-IV enzyme [3] | half-life at 2 μM [3] | % degradation in 24 h when incubated with liver microsomes [4] | half-life at 2 μM [4] | Insulin secretion ([5]; 0.1 nM test compd.) | Insulin secretion ([5]; 1 nM test compd.) | Insulin secretion ([5]; 10 nM test compd.) | % degradation in 24 h when incubated with simulated gastric fluid [6] | half-life (t1/2) in simulated gastric fluid [6] | Human Glucagon receptor antagonistic activity, inhibition of cAMP production of Glucagon peptide [7, 8] | Human Glucagon receptor antagonistic activity, inhibition of cAMP production of Glucagon peptide [7, 9] | Human Glucagon receptor antagonistic activity, inhibition of cAMP production of Glucagon peptide [7, 10] | Human Glucagon receptor antagonistic activity, inhibition of cAMP production of Glucagon peptide [7, 11] | Human Glucagon receptor antagonistic activity, inhibition of cAMP production of Glucagon peptide [7, 12] | half-life at 2 μM [1] | half-life (t1/2) in human plasma [2] | further results
CCc1cc(OC)ccc1-c1ccc(CC(NC(=O)[C@H](CC(=O)O)NC(=O)[C@H](CO)NC(=O)[C@@H](NC(=O)C(C)(Cc2ccccc2F)NC(=O)[C@@H](NC(=O)CNC(=O)[C@H](CCC(N)=O)NC(=O)[C@H](C)NC(=O)[C@@H](N)Cc2c[nH]cn2)[C@@H](C)O)[C@@H](C)O)C(=O)NC(Cc2ccc(-c3ccccc3C(F)(F)F)cc2)C(N)=O)cc1 (single isomer, unassigned) [compound 28] | 42% | (6) h | 70% | 8 h | 72% | 9 h | 78% | 1 h | 12.0 ± 0.14 pg/µg/h | 14.3 ± 0.12 pg/µg/h | 27.8 ± 0.32 pg/µg/h | 12% | (8) h | 0 pmol/ml/μg prt | 4 ± 0.06 pmol/ml/μg prt | 3 ± 0.11 pmol/ml/μg prt | 0 pmol/ml/μg prt | 0 pmol/ml/μg prt |  |  | 
CCc1cc(OC)ccc1-c1ccc(CC(NC(=O)[C@H](CC(=O)O)NC(=O)[C@H](CO)NC(=O)[C@@H](NC(=O)C(C)(Cc2ccccc2F)NC(=O)[C@@H](NC(=O)CNC(=O)[C@H](CCC(N)=O)NC(=O)[C@H](CO)NC(=O)[C@@H](N)Cc2c[nH]cn2)[C@@H](C)O)[C@@H](C)O)C(=O)NC(Cc2ccc(-c3ccccc3F)cc2)C(N)=O)cc1 (single isomer, unassigned) [compound 23] | 50% | (6) h | 80% | 8 h | 77% | 9 h | 82% | 1 h | 11.9 ± 0.17 pg/µg/h | 14.2 ± 0.13 pg/µg/h | 27.6 ± 0.16 pg/µg/h | 13% | (8) h | 0 pmol/ml/μg prt | 4 ± 0.05 pmol/ml/μg prt | 2 ± 0.13 pmol/ml/μg prt | 2 ± 0.12 pmol/ml/μg prt | 0 pmol/ml/μg prt |  |  | 
CCc1cc(OC)ccc1-c1ccc(CC(NC(=O)[C@H](CC(=O)O)NC(=O)[C@H](CO)NC(=O)[C@@H](NC(=O)C(C)(Cc2ccccc2F)NC(=O)[C@@H](NC(=O)CNC(=O)[C@H](CCC(N)=O)NC(=O)[C@H](CO)NC(=O)[C@@H](N)Cc2c[nH]cn2)[C@@H](C)O)[C@@H](C)O)C(=O)NC(Cc2ccc(-c3ccccc3C(F)(F)F)cc2)C(N)=O)cc1 (single isomer, unassigned) [compound 24] | 43% | (6) h | 78% | 8 h | 76% | 9 h | 80% | 1 h | 12.3 ± 0.33 pg/µg/h | 14.8 ± 0.16 pg/µg/h | 28.1 ± 0.22 pg/µg/h | 14% | (8) h | 0 pmol/ml/μg prt | 4 ± 0.09 pmol/ml/μg prt | 2 ± 0.12 pmol/ml/μg prt | 0 pmol/ml/μg prt | 0 pmol/ml/μg prt |  |  | 
CCc1cc(OC)ccc1-c1ccc(CC(NC(=O)[C@H](CC(=O)O)NC(=O)[C@H](CO)NC(=O)[C@@H](NC(=O)[C@H](Cc2ccccc2)NC(=O)[C@@H](NC(=O)CNC(=O)[C@H](CCC(N)=O)NC(=O)[C@H](C)NC(=O)[C@@H](N)Cc2c[nH]cn2)[C@@H](C)O)[C@@H](C)O)C(=O)NC(Cc2ccc(-c3ccccc3F)cc2)C(N)=O)cc1 (single isomer, unassigned) [compound 11] | 100% |  | 70% |  | 86% |  | 100% | 0.5 h | 13.1 ± 0.11 pg/µg/h | 14.9 ± 0.17 pg/µg/h | 28.8 ± 0.44 pg/µg/h | 100% |  | 2 ± 0.13 pmol/ml/μg prt | 10 ± 0.03 pmol/ml/μg prt | 8 ± 0.03 pmol/ml/μg prt | 6 ± 0.22 pmol/ml/μg prt | 0 pmol/ml/μg prt | 0.5 h | (9) h | half-life at 2 μM [6]: 0.5 h
CCc1cc(OC)ccc1-c1ccc(CC(NC(=O)[C@H](CC(=O)O)NC(=O)[C@H](CO)NC(=O)[C@@H](NC(=O)[C@H](Cc2ccccc2)NC(=O)[C@@H](NC(=O)CNC(=O)[C@H](CCC(N)=O)NC(=O)[C@H](C)NC(=O)[C@@H](N)Cc2c[nH]cn2)[C@@H](C)O)[C@@H](C)O)C(=O)NC(Cc2ccc(-c3ccccc3C(F)(F)F)cc2)C(N)=O)cc1 (single isomer, unassigned) [compound 12] | 100% |  | 70% |  | 72% |  | 100% | 0.5 h | 12.9 ± 0.14 pg/µg/h | 15.8 ± 0.13 pg/µg/h | 29.9 ± 0.15 pg/µg/h | 100% |  | 0 pmol/ml/μg prt | 5 ± 0.09 pmol/ml/μg prt | 3 ± 0.11 pmol/ml/μg prt | 0 pmol/ml/μg prt | 0 pmol/ml/μg prt | 0.5 h | (9) h | half-life at 2 μM [6]: 0.5 h
CCc1cc(OC)ccc1-c1ccc(CC(NC(=O)[C@H](CC(=O)O)NC(=O)[C@H](CO)NC(=O)[C@@H](NC(=O)C(C)(Cc2ccccc2F)NC(=O)[C@@H](NC(=O)CNC(=O)[C@H](CCC(N)=O)NC(=O)[C@H](C)NC(=O)[C@@H](N)Cc2c[nH]cn2)[C@@H](C)O)[C@@H](C)O)C(=O)NC(Cc2ccc(-c3ccccc3F)cc2)C(N)=O)cc1 (single isomer, unassigned) [compound 27] | 41% | (6) h | 70% | 8 h | 86% | 9 h | 77% | 1 h | 12.6 ± 0.25 pg/µg/h | 15.3 ± 0.31 pg/µg/h | 29.7 ± 0.48 pg/µg/h | 15% | (8) h | 3 ± 0.12 pmol/ml/μg prt | 14 ± 0.02 pmol/ml/μg prt | 11 ± 0.03 pmol/ml/μg prt | 7 ± 0.22 pmol/ml/μg prt | 0 pmol/ml/μg prt |  |  | 
